# “Also recorded” adds a separate entry of the source.
# Experiments:
# [1] = Stability comparison between crystal forms I and II (influence factors: light, temperature, humidity); type: physicochemical; details: for change of purity of the compound: 10 days under light, 30° C. and 40° C., 75% RH and 90% RH
# [2] = Special stability of crystal form II (grinding, heating, tableting); type: physicochemical
# Excerpt: The crystal form II of a compound of formula (I) prepared according to the method of Example 2 was subjected to grinding, heating and tableting.
smiles,measurement,setting,value
CCOC(=O)c1c(C#N)c(-c2ccc(Oc3c(F)cccc3F)cc2)cn1[C@@H]1CCN(C(=O)OC(C)(C)C)C1 [Crystal form II],"purity of the compound, 30° C.",[1]; day 0,99.73%
same,"purity of the compound, 30° C.",[1]; day 5,99.72%
same,"purity of the compound, 30° C.",[1]; day 10,99.72%
same,"purity of the compound, 30° C.",[1]; day 30,99.67%
same,"purity of the compound, 40° C.",[1]; day 0,99.73%
same,"purity of the compound, 40° C.",[1]; day 5,99.68%
same,"purity of the compound, 40° C.",[1]; day 10,99.65%
same,"purity of the compound, 40° C.",[1]; day 30,99.60%
same,change of purity of the compound,[1],not obviously changed
same,"purity of the compound, Illumination","[1]; open condition, day 0",99.73%
same,"purity of the compound, Illumination","[1]; open condition, day 5",99.56%
same,"purity of the compound, Illumination","[1]; open condition, day 10",99.43%
same,"purity of the compound, Illumination","[1]; open condition, day 30",99.21%
same,"purity of the compound, RH75%",[1]; day 0,99.73%
same,"purity of the compound, RH75%",[1]; day 5,99.72%
same,"purity of the compound, RH75%",[1]; day 10,99.68%
same,"purity of the compound, RH75%",[1]; day 30,99.64%
same,"purity of the compound, RH90%",[1]; day 0,99.73%
same,"purity of the compound, RH90%",[1]; day 5,99.71%
same,"purity of the compound, RH90%",[1]; day 10,99.61%
same,"purity of the compound, RH90%",[1]; day 30,99.53%
same,crystal form re-tested after the influence factor experiment,[1],not changed
same,stability compared with crystal form I (amorphous sample),"[1]; open condition, light, high temperature and high humidity",significantly better
same,XRD detection (crystal form after treatment),[2]; Grinding for 10 min in a mortar under nitrogen protection,Crystal
same,XRD detection (crystal form after treatment),[2]; Tableting,Crystal
same,stability of the crystal form under mechanical treatment,"[2]; grinding, heating and tableting (pressure)",good stability; also recorded: stable
CCOC(=O)c1c(C#N)c(-c2ccc(Oc3c(F)cccc3F)cc2)cn1[C@@H]1CCN(C(=O)OC(C)(C)C)C1 [Crystal form I],"purity of the compound, 30° C.",[1]; day 0,99.31%
same,"purity of the compound, 30° C.",[1]; day 5,99.23%
same,"purity of the compound, 30° C.",[1]; day 10,99.10%
same,"purity of the compound, 30° C.",[1]; day 30,98.87%
same,"purity of the compound, 40° C.",[1]; day 0,99.31%
same,"purity of the compound, 40° C.",[1]; day 5,99.18%
same,"purity of the compound, 40° C.",[1]; day 10,99.05%
same,"purity of the compound, 40° C.",[1]; day 30,95.01%
same,change of purity of the compound,[1],not obviously changed
same,"purity of the compound, Illumination","[1]; open condition, day 0",99.31%
same,"purity of the compound, Illumination","[1]; open condition, day 5",97.75%
same,"purity of the compound, Illumination","[1]; open condition, day 10",95.53%
same,"purity of the compound, Illumination","[1]; open condition, day 30",85.76%
same,"purity of the compound, RH75%",[1]; day 0,99.31%
same,"purity of the compound, RH75%",[1]; day 5,99.18%
same,"purity of the compound, RH75%",[1]; day 10,98.97%
same,"purity of the compound, RH75%",[1]; day 30,97.41%
same,"purity of the compound, RH90%",[1]; day 0,99.31%
same,"purity of the compound, RH90%",[1]; day 5,98.91%
same,"purity of the compound, RH90%",[1]; day 10,98.51%
same,"purity of the compound, RH90%",[1]; day 30,95.91%
same,crystal form re-tested after the influence factor experiment,[1],not changed
